This note sets out measurements from ChEMBL document CHEMBL5052833, “Ube2k modulators and methods for their use” (2021).

For assay [1], the target named is T1, Ubiquitin-conjugating enzyme E2 K (Homo sapiens) (UniProt P61086).
T1 sequence (whole entry): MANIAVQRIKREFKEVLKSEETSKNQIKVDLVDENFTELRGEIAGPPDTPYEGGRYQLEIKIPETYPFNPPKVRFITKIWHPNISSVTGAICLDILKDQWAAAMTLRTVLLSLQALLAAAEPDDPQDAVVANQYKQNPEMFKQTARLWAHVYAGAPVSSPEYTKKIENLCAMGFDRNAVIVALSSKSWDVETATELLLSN
The assay can be described thus: Stabilization of mono-ubiquitinated UBE2K (unknown origin) at 0.25 to 25 uM assessed as decrease in poly-Ub measured by poly-ubiquitination assay. The note with it: dose 0.25-25 µM.

Assay [2] addresses T1, Ubiquitin-conjugating enzyme E2 K (Homo sapiens). The assay can be described thus: Stabilization of mono-ubiquitinated UBE2K (unknown origin) at 500 uM assessed as decrease in poly-Ub measured by poly-ubiquitination assay.
Assay [3] has the same target. The assay can be described thus: Stabilization of mono-ubiquitinated UBE2K (unknown origin) at 0.4 to 100 uM assessed as decrease in poly-Ub measured by poly-ubiquitination assay. The note with it: dose 0.4-100 µM.
For assay [4], the species on record is Homo sapiens. The assay can be described thus: Stabilization of mono-ubiquitinated UBE2W (unknown origin) at 500 uM assessed as decrease in poly-Ub measured by poly-ubiquitination assay.
In assay [5] the target is Ubiquitin-conjugating enzyme E2 E1 (Homo sapiens) (UniProt P51965). The assay can be described thus: Stabilization of mono-ubiquitinated UBE2E1 (unknown origin) at 500 uM assessed as decrease in poly-Ub measured by poly-ubiquitination assay.
Sequence of Ubiquitin-conjugating enzyme E2 E1 (Homo sapiens) (P51965 whole entry): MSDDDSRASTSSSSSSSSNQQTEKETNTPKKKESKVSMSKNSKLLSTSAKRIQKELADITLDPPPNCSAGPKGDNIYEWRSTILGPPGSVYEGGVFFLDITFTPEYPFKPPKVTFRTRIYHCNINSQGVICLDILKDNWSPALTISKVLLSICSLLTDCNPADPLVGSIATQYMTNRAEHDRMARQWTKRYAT
For assay [6], the species on record is Homo sapiens. The assay is described as follows: Stabilization of mono-ubiquitinated UBE2Q2 (unknown origin) at 500 uM assessed as decrease in poly-Ub measured by poly-ubiquitination assay.
The species named for assay [7] is Homo sapiens. The assay is described as follows: Stabilization of mono-ubiquitinated UBE2D4 (unknown origin) at 500 uM assessed as decrease in poly-Ub measured by poly-ubiquitination assay.
Assay [8] deals with T1, Ubiquitin-conjugating enzyme E2 K (Homo sapiens). The assay can be described thus: Stabilization of UBE2K (unknown origin) at 1 to 1000 uM assessed as modulation of ubiquitin discharge measured by ELISA assay. Particulars: dose 1-1000 µM. (ELISA stands for enzyme-linked immunosorbent assay.)
For assay [9], the species on record is Homo sapiens. The assay is described as follows: Stabilization of mono-ubiquitinated UBE2S (unknown origin) at 500 uM assessed as decrease in poly-Ub measured by poly-ubiquitination assay.
For assay [10], the system named is K562. The assay can be described thus: Antitumor activity against human K562 cells xenografted female SCID Bg mouse assessed as tumor growth inhibition at 25 mg/kg, po administered twice a day for 12 consecutive days and measured on day 12. The format is functional. The note with it: 288 h, time 12 day, read-out: TGI. (In general: A xenograft is tissue or cells of one species grown in another, often human tumour cells in immunodeficient mice.)

Assay [11] deals with K562. The assay can be described thus: Antitumor activity against human K562 cells xenografted female SCID Bg mouse assessed as tumor growth inhibition at 25 mg/kg, po administered twice a day for 12 consecutive days and measured on day 10. The format is functional. Particulars: 240 h, time 10 day, read-out: TGI.
Assay [12] has as its target T1, Ubiquitin-conjugating enzyme E2 K (Homo sapiens). The assay can be described thus: Stabilization of mono-ubiquitinated UBE2K (unknown origin) at 0.25 to 50 uM assessed as decrease in poly-Ub measured by poly-ubiquitination assay. The note with it: dose 0.25-50 µM.
The target is the same in assay [13]. The assay can be described thus: Stabilization of mono-ubiquitinated UBE2K (unknown origin) at 16 to 100 uM assessed as decrease in poly-Ub measured by poly-ubiquitination assay. The note with it: dose 16-100 µM.
The subject of assay [14] is MV4-11. The assay is described as follows: Antitumor activity against human MV4-11 cells xenografted nude mouse assessed as tumor growth inhibition at 75 mg/kg, po administered twice a day for 24 days. Format: functional. The note with it: MV4-11, po, 576 h, time 24 day, read-out: TGI.
Assay [15] deals with MV4-11. The assay is described as follows: Antitumor activity against human MV4-11 cells xenografted nude mouse assessed as tumor growth inhibition at 150 mg/kg, po administered twice a day for 24 days. The note with it: MV4-11, po, 576 h, time 24 day, read-out: TGI. The format is functional.

Activity calls are given as the source filed them. The calls are words filed in the database; no cut-off is given here.

With `O=C(NCc1cc(-c2cccs2)[nH]n1)c1ccccc1OC(F)F`, in [1], the outcome was Active.

Turning to `COc1ccccc1-c1cc(CNC(=O)c2ccccc2OC(F)(F)F)n[nH]1`, the result in assay [2], in [3] and in assay [8] was Active. For the same molecule, the result in assay [4], in [5], in [6], in [7] and in assay [9] was inactive.

With `COc1ccc(F)cc1-c1nc(CNC(=O)c2ccccc2OC(F)F)n[nH]1`, the result in assay [2] was Active. Also, the result in assay [4], in assay [5], in [6], in assay [7] and in [9] was inactive.

With `COc1ccc(F)cc1-c1nc(CNC(=O)c2cc(F)ccc2OC(F)(F)F)n[nH]1`, the figures for the inhibition in vivo at 25 mg/kg in assay [10] and in assay [11] were 86.3% and 73.6%, respectively.

Consider `O=C(NCc1cc(-c2cccs2)[nH]n1)c1ccccc1OC(F)(F)F`, for which, in assay [12], the result was Active.

`COc1ccccc1-c1nc(CNC(=O)c2ccccc2OC(F)F)n[nH]1`: the outcome in assay [2], in [3] and in assay [8] was Active. For the same molecule, the outcome in assay [4], in assay [5], in assay [6], in assay [7] and in assay [9] was inactive.

As to `COc1ccccc1-c1nc(CNC(=O)c2cc(C#N)ccc2OC(F)F)n[nH]1`, the result in [8] was Active.

Turning to `O=C(NCc1cc(-c2cccs2)[nH]n1)c1ccccc1C(F)(F)F`, the result in assay [13] was Active.

Regarding `O=C(NCc1cc(-c2ccccc2O)[nH]n1)c1ccccc1OC(F)(F)F`, the outcome in assay [3] and in assay [8] was Active.

`COc1ccc(F)cc1-c1nc(CNC(=O)c2cccc3c2OC(F)(F)O3)n[nH]1`: the inhibition in vivo at 75 mg/kg in [14] was 43%. Further, the inhibition in vivo at 150 mg/kg in assay [15] was found to be 37%. Besides, the result in [8] was Active.
